ChEMBL document CHEMBL4145445, “Design, synthesis and biological assessment of new thiazolylhydrazine derivatives as selective and reversible hMAO-A inhibitors” (Eur J Med Chem, 2018)
Values belong to the molecule of their own block, whether it stands above or below them.

Tests used:
[1] = target: T1, Amine oxidase [flavin-containing] B (Homo sapiens, UniProt P27338); test: Inhibition of human MAO-B using tyramine hydrochloride as substrate after 30 mins by Amplex Red reagent based horseradish peroxidase enzyme-coupled fluorescence assay
T1 sequence (P27338 whole entry): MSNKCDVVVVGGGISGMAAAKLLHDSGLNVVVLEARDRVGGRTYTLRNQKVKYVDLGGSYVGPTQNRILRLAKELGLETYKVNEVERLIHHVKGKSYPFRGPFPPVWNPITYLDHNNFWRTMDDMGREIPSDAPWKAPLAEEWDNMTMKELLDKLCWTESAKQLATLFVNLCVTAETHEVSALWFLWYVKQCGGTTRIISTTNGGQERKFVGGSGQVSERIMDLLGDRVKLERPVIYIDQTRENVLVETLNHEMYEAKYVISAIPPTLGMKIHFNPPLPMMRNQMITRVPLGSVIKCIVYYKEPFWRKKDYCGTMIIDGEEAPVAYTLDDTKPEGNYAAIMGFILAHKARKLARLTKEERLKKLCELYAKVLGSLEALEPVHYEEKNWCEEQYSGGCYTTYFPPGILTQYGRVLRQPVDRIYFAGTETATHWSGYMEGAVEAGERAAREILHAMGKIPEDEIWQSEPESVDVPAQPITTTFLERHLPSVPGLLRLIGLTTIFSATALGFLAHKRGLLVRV

[2] = target: T2, Amine oxidase [flavin-containing] A (Homo sapiens, UniProt P21397); test: Inhibition of human MAO-A at 10^-4 to 10^-3 M using tyramine hydrochloride as substrate after 30 mins by Amplex Red reagent based horseradish peroxidase enzyme-coupled fluorescence assay relative to control; settings: 0.5 h
T2 sequence (P21397 whole entry): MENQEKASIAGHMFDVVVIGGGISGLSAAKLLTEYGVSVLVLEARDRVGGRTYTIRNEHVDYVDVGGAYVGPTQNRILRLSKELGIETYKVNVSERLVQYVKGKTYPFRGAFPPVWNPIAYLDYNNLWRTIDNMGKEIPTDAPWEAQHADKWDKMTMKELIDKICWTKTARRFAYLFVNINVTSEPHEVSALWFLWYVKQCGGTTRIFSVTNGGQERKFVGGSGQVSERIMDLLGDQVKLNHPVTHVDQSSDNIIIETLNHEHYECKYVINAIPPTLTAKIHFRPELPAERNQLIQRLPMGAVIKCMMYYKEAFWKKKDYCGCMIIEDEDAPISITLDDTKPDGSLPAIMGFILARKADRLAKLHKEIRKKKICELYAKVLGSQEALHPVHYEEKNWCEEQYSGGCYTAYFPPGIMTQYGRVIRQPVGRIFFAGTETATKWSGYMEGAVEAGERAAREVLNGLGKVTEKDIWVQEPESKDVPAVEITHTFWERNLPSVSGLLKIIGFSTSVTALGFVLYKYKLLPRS

[3] = target: T1, Amine oxidase [flavin-containing] B; test: Inhibition of human MAO-B at 10^-4 to 10^-3 M using tyramine hydrochloride as substrate after 30 mins by Amplex Red reagent based horseradish peroxidase enzyme-coupled fluorescence assay relative to control; settings: 0.5 h
[4] = target: T2, Amine oxidase [flavin-containing] A; test: Inhibition of human MAO-A using tyramine hydrochloride as substrate after 30 mins by Amplex Red reagent based horseradish peroxidase enzyme-coupled fluorescence assay
Homo sapiens = species: Homo sapiens; test: Selectivity index, ratio of IC50 for human MAO-B to IC50 for human MAO-A
[5] = target: T2, Amine oxidase [flavin-containing] A; test: Reversible-competitive inhibition of human MAO-A using varying levels of tyramine as substrate after 30 mins by Lineweaver-Burk plot
Salmonella typhimurium [6] = test: Genotoxicity in Salmonella typhimurium TA98 assessed as increase in revertant colonies at 0.625 mg/ml in presence of Sprague-Dawley rat liver S9 fraction by Ames test relative to basal level; format: toxicity, organism-based; settings: salmonella enterica subsp. enterica serovar typhimurium
Salmonella typhimurium [7] = test: Genotoxicity in Salmonella typhimurium TA98 assessed as increase in revertant colonies at 0.625 mg/ml in absence of Sprague-Dawley rat liver S9 fraction by Ames test relative to basal level; format: toxicity, organism-based; settings: salmonella enterica subsp. enterica serovar typhimurium
Salmonella typhimurium [8] = test: Genotoxicity in Salmonella typhimurium TA100 assessed as increase in revertant colonies at 0.156 mg/ml in absence of Sprague-Dawley rat liver S9 fraction by Ames test relative to basal level; format: toxicity, organism-based; settings: salmonella enterica subsp. enterica serovar typhimurium
Salmonella typhimurium [9] = test: Genotoxicity in Salmonella typhimurium TA98 assessed as increase in revertant colonies at 5 mg/ml in absence of Sprague-Dawley rat liver S9 fraction by Ames test relative to basal level; format: toxicity, organism-based; settings: salmonella enterica subsp. enterica serovar typhimurium
Salmonella typhimurium [10] = test: Genotoxicity in Salmonella typhimurium TA98 assessed as increase in revertant colonies at 1.25 mg/ml in absence of Sprague-Dawley rat liver S9 fraction by Ames test relative to basal level; format: toxicity, organism-based; settings: salmonella enterica subsp. enterica serovar typhimurium
Salmonella typhimurium [11] = test: Genotoxicity in Salmonella typhimurium TA100 assessed as increase in revertant colonies at 2.5 mg/ml in presence of Sprague-Dawley rat liver S9 fraction by Ames test relative to basal level; format: toxicity, organism-based; settings: salmonella enterica subsp. enterica serovar typhimurium
Salmonella typhimurium [12] = test: Genotoxicity in Salmonella typhimurium TA98 assessed as increase in revertant colonies at 1.25 mg/ml in presence of Sprague-Dawley rat liver S9 fraction by Ames test relative to basal level; format: toxicity, organism-based; settings: salmonella enterica subsp. enterica serovar typhimurium
Salmonella typhimurium [13] = test: Genotoxicity in Salmonella typhimurium TA100 assessed as increase in revertant colonies at 0.3125 mg/ml in absence of Sprague-Dawley rat liver S9 fraction by Ames test relative to basal level; format: toxicity, organism-based; settings: salmonella enterica subsp. enterica serovar typhimurium
Salmonella typhimurium [14] = test: Genotoxicity in Salmonella typhimurium TA98 assessed as increase in revertant colonies at 5 mg/ml in presence of Sprague-Dawley rat liver S9 fraction by Ames test relative to basal level; format: toxicity, organism-based; settings: salmonella enterica subsp. enterica serovar typhimurium
Salmonella typhimurium [15] = test: Genotoxicity in Salmonella typhimurium TA100 assessed as increase in revertant colonies at 0.625 mg/ml in presence of Sprague-Dawley rat liver S9 fraction by Ames test relative to basal level; format: toxicity, organism-based; settings: salmonella enterica subsp. enterica serovar typhimurium
Salmonella typhimurium [16] = test: Genotoxicity in Salmonella typhimurium TA100 assessed as increase in revertant colonies at 0.156 mg/ml in presence of Sprague-Dawley rat liver S9 fraction by Ames test relative to basal level; format: toxicity, organism-based; settings: salmonella enterica subsp. enterica serovar typhimurium
NIH3T3 = test: Cytotoxicity against mouse NIH/3T3 cells by MTT assay; format: cell-based
Salmonella typhimurium [17] = test: Genotoxicity in Salmonella typhimurium TA98 assessed as increase in revertant colonies at 0.156 mg/ml in absence of Sprague-Dawley rat liver S9 fraction by Ames test relative to basal level; format: toxicity, organism-based; settings: salmonella enterica subsp. enterica serovar typhimurium
Salmonella typhimurium [18] = test: Genotoxicity in Salmonella typhimurium TA100 assessed as increase in revertant colonies at 1.25 mg/ml in absence of Sprague-Dawley rat liver S9 fraction by Ames test relative to basal level; format: toxicity, organism-based; settings: salmonella enterica subsp. enterica serovar typhimurium
Salmonella typhimurium [19] = test: Genotoxicity in Salmonella typhimurium TA100 assessed as increase in revertant colonies at 1.25 mg/ml in presence of Sprague-Dawley rat liver S9 fraction by Ames test relative to basal level; format: toxicity, organism-based; settings: salmonella enterica subsp. enterica serovar typhimurium
Salmonella typhimurium [20] = test: Genotoxicity in Salmonella typhimurium TA100 assessed as increase in revertant colonies at 5 mg/ml in absence of Sprague-Dawley rat liver S9 fraction by Ames test relative to basal level; format: toxicity, organism-based; settings: salmonella enterica subsp. enterica serovar typhimurium
Salmonella typhimurium [21] = test: Genotoxicity in Salmonella typhimurium TA100 assessed as increase in revertant colonies at 0.3125 mg/ml in presence of Sprague-Dawley rat liver S9 fraction by Ames test relative to basal level; format: toxicity, organism-based; settings: salmonella enterica subsp. enterica serovar typhimurium
Salmonella typhimurium [22] = test: Genotoxicity in Salmonella typhimurium TA98 assessed as increase in revertant colonies at 2.5 mg/ml in absence of Sprague-Dawley rat liver S9 fraction by Ames test relative to basal level; format: toxicity, organism-based; settings: salmonella enterica subsp. enterica serovar typhimurium
Salmonella typhimurium [23] = test: Genotoxicity in Salmonella typhimurium TA100 assessed as increase in revertant colonies at 2.5 mg/ml in absence of Sprague-Dawley rat liver S9 fraction by Ames test relative to basal level; format: toxicity, organism-based; settings: salmonella enterica subsp. enterica serovar typhimurium
Salmonella typhimurium [24] = test: Genotoxicity in Salmonella typhimurium TA98 assessed as increase in revertant colonies at 0.156 mg/ml in presence of Sprague-Dawley rat liver S9 fraction by Ames test relative to basal level; format: toxicity, organism-based; settings: salmonella enterica subsp. enterica serovar typhimurium
Salmonella typhimurium [25] = test: Genotoxicity in Salmonella typhimurium TA98 assessed as increase in revertant colonies at 0.3125 mg/ml in absence of Sprague-Dawley rat liver S9 fraction by Ames test relative to basal level; format: toxicity, organism-based; settings: salmonella enterica subsp. enterica serovar typhimurium
Salmonella typhimurium [26] = test: Genotoxicity in Salmonella typhimurium TA98 assessed as increase in revertant colonies at 2.5 mg/ml in presence of Sprague-Dawley rat liver S9 fraction by Ames test relative to basal level; format: toxicity, organism-based; settings: salmonella enterica subsp. enterica serovar typhimurium
Salmonella typhimurium [27] = test: Genotoxicity in Salmonella typhimurium TA100 assessed as increase in revertant colonies at 0.625 mg/ml in absence of Sprague-Dawley rat liver S9 fraction by Ames test relative to basal level; format: toxicity, organism-based; settings: salmonella enterica subsp. enterica serovar typhimurium
Salmonella typhimurium [28] = test: Genotoxicity in Salmonella typhimurium TA98 assessed as increase in revertant colonies at 0.3125 mg/ml in presence of Sprague-Dawley rat liver S9 fraction by Ames test relative to basal level; format: toxicity, organism-based; settings: salmonella enterica subsp. enterica serovar typhimurium
Salmonella typhimurium [29] = test: Genotoxicity in Salmonella typhimurium TA100 assessed as increase in revertant colonies at 5 mg/ml in presence of Sprague-Dawley rat liver S9 fraction by Ames test relative to basal level; format: toxicity, organism-based; settings: salmonella enterica subsp. enterica serovar typhimurium

SMILES: Clc1ccc(-c2csc(N/N=C/c3ccc(N4CCOCC4)cc3)n2)c(Cl)c1
IC50 [1]: 133 µM | inhibition (INH) [2]: > 50% | inhibition (INH) [3]: > 50% | IC50 [4]: 85.4 µM | Ratio IC50 (Homo sapiens): 1.56

SMILES: C(=N\Nc1nc(-c2ccccc2)cs1)/c1ccc(N2CCOCC2)cc1
IC50 [1]: > 1000 µM | inhibition (INH) [2]: > 50% | IC50 [4]: 11.4 µM | Ratio IC50 (Homo sapiens): > 87.8

SMILES: C(=N\Nc1nc(-c2ccccc2)cs1)/c1ccc(N2CCCC2)cc1
IC50 [1]: > 1000 µM | inhibition (INH) [2]: > 50% | IC50 [4]: 25.6 µM | Ratio IC50 (Homo sapiens): > 39.1

SMILES: Cc1ccc(-c2csc(N/N=C/c3ccc(N4CCOCC4)cc3)n2)cc1
IC50 [1]: > 1000 µM | inhibition (INH) [2]: > 50% | IC50 [4]: 10.4 µM | Ratio IC50 (Homo sapiens): > 96.2

SMILES: Fc1ccc(-c2csc(N/N=C/c3ccc(N4CCOCC4)cc3)n2)c(F)c1
Ki [5]: 0.0044 µM | fold change (FC) (Salmonella typhimurium [6]): 1.34 | fold change (FC) (Salmonella typhimurium [7]): 0.5 | fold change (FC) (Salmonella typhimurium [8]): 0.61 | fold change (FC) (Salmonella typhimurium [9]): 0.64 | fold change (FC) (Salmonella typhimurium [10]): 0.5 | fold change (FC) (Salmonella typhimurium [11]): 1.14 | fold change (FC) (Salmonella typhimurium [12]): 2.5 | fold change (FC) (Salmonella typhimurium [13]): 1 | fold change (FC) (Salmonella typhimurium [14]): 0.36 | fold change (FC) (Salmonella typhimurium [15]): 1.4 | fold change (FC) (Salmonella typhimurium [16]): 1.08 | IC50 [1]: 17.6 µM | IC50 (NIH3T3): > 1000 µM | fold change (FC) (Salmonella typhimurium [17]): 0.5 | fold change (FC) (Salmonella typhimurium [18]): 0.45 | fold change (FC) (Salmonella typhimurium [19]): 1.59 | fold change (FC) (Salmonella typhimurium [20]): 0.33 | fold change (FC) (Salmonella typhimurium [21]): 1.4 | inhibition (INH) [2]: > 50% | inhibition (INH) [3]: > 50% | IC50 [4]: 0.011 µM | fold change (FC) (Salmonella typhimurium [22]): 0.3 | fold change (FC) (Salmonella typhimurium [23]): 0.22 | fold change (FC) (Salmonella typhimurium [24]): 1.34 | fold change (FC) (Salmonella typhimurium [25]): 0.59 | fold change (FC) (Salmonella typhimurium [26]): 0.45 | fold change (FC) (Salmonella typhimurium [27]): 0.61 | fold change (FC) (Salmonella typhimurium [28]): 1.07 | Ratio IC50 (Homo sapiens): 1600 | fold change (FC) (Salmonella typhimurium [29]): 1.08

Further lines, results first:

IC50 [1]: 141 µM | inhibition (INH) [2]: > 50% | inhibition (INH) [3]: > 50% | IC50 [4]: 15.6 µM | Ratio IC50 (Homo sapiens): 9.03
SMILES: Fc1ccc(-c2csc(N/N=C/c3ccc(N4CCCC4)cc3)n2)c(F)c1

IC50 [1]: 42.9 µM | inhibition (INH) [2]: > 50% | inhibition (INH) [3]: > 50% | IC50 [4]: 54 µM | Ratio IC50 (Homo sapiens): 0.795
SMILES: N#Cc1ccc(-c2csc(N/N=C/c3ccc(N4CCOCC4)cc3)n2)cc1

IC50 [1]: > 100 µM | inhibition (INH) [2]: > 50% | IC50 [4]: 20 µM | Ratio IC50 (Homo sapiens): > 4.99
SMILES: Cc1ccc(-c2csc(N/N=C/c3ccc(N4CCCC4)cc3)n2)cc1
